# Assay results: patent US5708000A, “N4-substituted cytosinyl 1,3-oxathiolane nucleoside analogues, and their antiviral activity” (Laboratoire Laphal, priority 1994, dated 1998)
# Read-outs that look alike come from different tables or passages of the source.
# Assays:
# [1] = system: HIV-1 virus (BRU) in MT4 cells; assay: Anti-HIV test: inhibition of HIV-1 replication (syncitia formation) in infected MT4 cells; type: cell-based
# From the text: The evaluation of the antiviral action is based on the study of cytopathogenic effect of HIV-1 Virus on the cell line MT4. The cell line MT4 has as an origin T cells isolated from a patient, transformed by the […]. The cytopathogenic effect of HIV-1 virus is shown by the formation of multinucleated giant cells called <> visible under the microscope. This effect of HIV-1 is observed 4 to 5 days after infection. It is followed with the death of cells.
# The cytopathogenic effect is directly correlated to the infection of the cells by the virus, to its intracellular replication and to the expression of viral antigens by the cells. An inhibition of this effect thus corresponds to an inhibition of the multiplication of HIV-1 virus.
# The MT4 cells are maintained at 3.10^5 cells/ml in a RPMI 1640 medium : 10% of decomplemented fetal calf serum for 30 mn at 56° C. (hormons, serum growth factors . . . ), 1% glutamine, 1% penicillin streptomycin and 2 μg/ml Polyren which promotes the viral adhesion to the cells.
# The action of the treatment by the anti-viral agent is continuous. In fact this effect is present before during and after the viral infection. Successive dilutions are performed in the 10% fetal calf serum to be able to cultivate the MT4 cells for 8 days and to observe the formation of syncithias.
# Before infection : 3×10^6 cells/100 μl are distributed in a microtiter plate with 96 wells and centrifugated for 3 min. at 2000 rpm (rounds per minute). The pellet is then pre-incubated for 1 hour at 37° C., with 100 μl of various concentrations of the anti-viral agent to be tested.
# Infection : The infection is achieved in microwells while adding 100 TCIU (infection units) of HIV-1 virus (this titer of HIV-1 virus is determined as to induce the formation of syncithias in 4 or 5 days). The anti-viral agent is always present at the time of infection and dilution of the virus at 100 TCIU.
# After infection : After incubation for 1 hour at 37° C., the MT4 cells are washed three times with RPMI 1640 medium and cultured on account of 3.10^5 cells per milliliter of each of the concentration of the compounds to be tested on plates of 24 wells. When passing at day D3 the MT4 cells are diluted to 1/3. The concentration of the anti-viral agent is maintained. Each day occurrence of syncithia is observed under the microscope to detect any optional delay with respect to the controls HIV-1. At day D8 the determination of reverse transcriptase is carried out. When the cells are not infected thus it is a protection by the tested anti-viral agent.
# The compounds the synthesis of which has been described in this patent application and the related structures given in the previous prior art, have an affect on the inhibition of the replication of BRU HIV-1 virus (BRU beeing the vital strain experienced) in the case where the infected cells are of the type MT4.
# In the table I they have been described the results of the tests. Column 1 provides the names of the most representative studied compounds and in column 2 they are reported the so-called IC50 values (concentration of the component giving a 50% inhibition of the replication of HIV in the infected MT4 cells, measured at day D7 after infection). In observing and counting the number of formed syncitia in relation with that counted in the case of infected MT4 cells but untreated with antiviral compound, the value IC50 is determined.
# [2] = system: duck hepatitis B virus (DHBV); assay: Anti-HBV test: effect on the replication of the duck hepatitis B virus (DHBV) in infected duck hepatocytes (viral DNA); type: cell-based; details: Hepatocyte, 240 h, read-out: IC50, inhibition of the replication of DHBV virus
# From the text: Among the several methodologies used for evaluating the activity of compounds on Hepatitis B virus (HBV), the pattern of Hepatitis B virus of the duck (Duck HBV) has been utilized (J. Med. Virology (1990) 31 82-89; Viral Hepatitis and Liver disease (1988) 506-509; Hepatology (1989) 10 186-191). The material of culture to test <<in vitro>> the anti HBV activity of the compounds is made of duck hepatocytes infected by the duck Hepatitis B virus (DHBV) (Antimicrob. Agents Chemother. (1989) 33 336-339; J. Med. Virology 40,59-64; Antivir Res. (1993) 21, 155-171; Antimicrob. Agents Chemother. (1993) 37 1539-1542). Indeed the Hepatitis B virus of the duck is recognized as being very close to the human hepatitis B virus (Viral Hepatitis and Liver Disease (1988) 526-529. Antiviral Research (1987) 8189-199). Under standardized conditions (Virology (1989) 171 564-572) the cultures of duck hepatocytes allow the complete replication of DHBV. The antiviral activity of the tested compounds has been measured as a function of the amount of viral DNA produced during 10 days of culture of the infected hepatocytes.
# A young male duck 3 weeks old, affected by DHBV, is used for the production of hepatocytes. The duck is killed under anesthesia and the isolation of hepatocytes is carried out using the methodology of Guillouzou (Research in isolated and cultured hepatocytes, J. Libbey Eurotex Ltd / INSERM, 1986). The cells are cultured in the Leibowitz's medium and 5 μg/ml bovine insuline, 7×10^-5 mole cortisone hemisuccinate and 1,5% dimethylsulfoxide (DMSO) are added thereto. The density of the cells is 8×10^6 cells, they are sprayed in culture boxes of 100×20 mm. The tested compounds are added to the culture after the spread out of the cells. The medium is renewed every day, during 10 days. The production of viral DNA of the duck hepatitis B virus in the cells surpernatant is determined by means of hybridation method "Dot blot" according to Fourel and al. (Viral Hepatitis and Liver Disease, 1988, 506-509; Hepatology, 1989, 10, 186-191). Inhibition is expressed as a percentage of the DNA amount present on the supernatant of cells with regard to a culture infected by DHBV untreated with a nucleosidic derivative.
# The most representative described compounds have been tested for their effect on the replication of the duck virus HBV (DHBV) along the protocol exposed in the experimental part of this document.
# [3] = Human immunodeficiency virus 1, BRU HIV-1, MT4 cells, syncitia count, day D7 after infection, read-out: IC50 (concentration giving a 50% inhibition of the replication of HIV in the infected MT4 cells)
# [4] = duck hepatocytes infected by DHBV, viral DNA in supernatant, dot blot, 10 days of culture
SMILES,"IC50 [1, 3] [nM]","IC50 [2, 4] [nM]","IC50 ([1]; Human immunodeficiency virus 1, MT4, read-out: IC50 (concentration giving a 50% inhibition of the replication of HIV in the infected MT4 cells)) [nM]",IC50 [2] [nM]
"CN1C=C(C(=O)Nc2ccn([C@@H]3CS[C@H](CO)O3)c(=O)n2)Cc2ccccc21 (relative stereo) [Compound 10, cis 2-hydroxymethyl 5-[N^4-(1""-methyl 1"", 4""-dihydro 3""-quinolinylcarbonyl)cytosin-1'yl]-1,3-oxathiolane]",1000 to 10000,2000,–,–
"O=C(Nc1ccn([C@@H]2CS[C@H](CO)O2)c(=O)n1)c1cccnc1 (relative stereo) [Compound 2, Cis 2-(hydroxymethyl)-5 [N^4-(3""-pyridinylcarbonyl)cytosin-1'-yl]-1,3-oxathiolan]",100 to 1000,2000 ± 500,–,–
"Nc1ccn([C@H]2CS[C@@H](CO)O2)c(=O)n1 [BCH-189, 2',3'-dideoxy 3'-thiacytidine, reference compound]",1000,1000 ± 500,–,–
"O=C(Nc1ccn([C@@H]2CS[C@H](CO)O2)c(=O)n1)c1cccnc1Nc1cccc(C(F)(F)F)c1 (relative stereo) [Compound 11, cis 2-hydroxymethyl-5-[N^4-(2-(a,a,a-trifluoro-m-toluidino)nicotinyl)-cytosin-1'yl]-1,3-oxathiolane]",< 100000,–,–,–
"C[n+]1cc(C(=O)Nc2ccn([C@@H]3CS[C@H](CO)O3)c(=O)n2)cc2ccccc21 (relative stereo) [Compound 9, cis 2-hydroxymethyl 5-[N^4-(1""-methyl 3""-quinolinyicarbonyl)cytosin-1'yl]-1,3-oxathiolane]",–,–,> 100000,2000
O=C(Nc1ccn([C@@H]2CS[C@H](CO)O2)c(=O)n1)c1cnc2ccccc2c1 (relative stereo) [Compound 8],10000,2000,–,–
